We go through 14 molecules from patent publication US7439350B2, “Nucleotide analogs” (Gilead Sciences, Inc., priority 1993, dated 2008).

pEC50, pIC50: −log10 of the molar value. “Also recorded” adds a separate entry of the source. Like-named read-outs stand apart in the source and are kept apart here. Where only a bound is given, the exact number is not on record here.

For series [1], the system named is herpes simplex virus, type-1 and 2 (HSV-1 and -2). Particulars: cited from earlier work.
Series [2] relates to herpes simplex virus type 1. The following applies: mice and rabbits in vivo, including herpetic keratitis caused by a TK- mutant; cited from earlier work.
For another series, the system named is vaccinia virus. The following applies: cited from earlier work.
A further series concerns adenovirus. Particulars: cited from earlier work.
Series [3] has as its system varicella zoster virus (VZV). Particulars: cited from earlier work.
The subject of series [4] is intraperitoneal P388 leukemia. Particulars: murine tumor model; cited from earlier work.
The test system of series [5] is broad-spectrum of DNA viruses. The following applies: HSV-1 and 2, VZV, TK- HSV, HCMV, SeHV, SHV-1, BHV-1, EHV-1, ASF virus, vaccinia virus, adenoviruses, MSV; cited from earlier work.
Another series relates to HSV-2 (strain 414-92). Briefly: Antiviral activity against HSV-2 (strain 414-92) in MA 104 cells, crystal violet readout. It is filed as cell-based. The following applies: HSV-2 strain 414-92, MA 104 cells, three days; concentration that inhibits virus-mediated cell killing by 50%. As for the experimental part:
Compounds were individually tested for activity against HSV-1 and/or HSV-2. HSV-2 (strain 414-92) was tested using MA 104 cells in the following assay protocol. 96-Well plates were seeded with 1×10^4 MA 104 cells per well using 200 μL minimal essential medium (MEM) containing 10% calf serum per well, and incubated overnight at 37° C. The compounds were dissolved in MEM Earle's Salts without serum. The medium was removed by-aspiration and 100 μL MEM Earle's Salts without serum was added to the wells. Serial 3-fold dilutions of the compounds were prepared by serial transfer of 50 μL of medium from wells containing compound to wells lacking compound. The plates were incubated 15 minutes at 37° C. followed by addition of 100 PFU/well of virus in MEM Earle's Salts with 2% fetal bovine serum. The plates were then incubated at 37° C. for three days until approximately 90% of the cells in virus infected control wells containing no compound were killed. Following incubation, medium was aspirated and the wells were washed with sterile PBS. 100 μL 0.5% crystal violet in 20% methanol was then added to the wells for 5 minutes, aspirated and the wells were washed two or three times with distilled water. 200 μL of 0.01 N HCl was added to the wells and the absorbance of each well at 595 nm was determined. The results, shown in Table 6, were expressed as the IC50, the concentration (μM) that inhibits cell killing mediated by HSV-2 by 50%. […] The toxicity of the compounds were expressed as the CC50, the concentration that kills 50% of uninfected cells.

Series [6] concerns uninfected cells (MA 104 cells). Briefly: Toxicity of the compounds to uninfected cells (CC50). Type of series: cell-based. Particulars: concentration that kills 50% of uninfected cells. As for the experimental part: Compounds were individually tested for activity against HSV-1 and/or HSV-2. HSV-2 (strain 414-92) was tested using MA 104 cells in the following assay protocol. 96-Well plates were seeded with 1×10^4 MA 104 cells per well using 200 μL minimal essential medium (MEM) containing 10% calf serum per well, and incubated overnight at 37° C. The compounds were dissolved in MEM Earle's Salts without serum. The medium was removed by-aspiration and 100 μL MEM Earle's Salts without serum was added to the wells. Serial 3-fold dilutions of the compounds were prepared by serial transfer of 50 μL of medium from wells containing compound to wells lacking compound. The plates were incubated 15 minutes at 37° C. followed by addition of 100 PFU/well of virus in MEM Earle's Salts with 2% fetal bovine serum. The plates were then incubated at 37° C. for three days until approximately 90% of the cells in virus infected control wells containing no compound were killed. Following incubation, medium was aspirated and the wells were washed with sterile PBS. 100 μL 0.5% crystal violet in 20% methanol was then added to the wells for 5 minutes, aspirated and the wells were washed two or three times with distilled water. 200 μL of 0.01 N HCl was added to the wells and the absorbance of each well at 595 nm was determined. […]

Series [7] concerns human cytomegalovirus (HCMV). The following applies: cited from earlier work.
Another series deals with HCMV. Briefly: Activity against HCMV in tissue culture (NHDF cell line). Type of series: cell-based. The text has this: The title compound was synthesized using N^4-benzoyl HPMPC diethyl ester tritylated at the hydroxyl group as a starting material. The starting material was detritylated using acetic acid and then converted to N^4-benzoyl HPMPC using TMSBr. The resulting compound was converted to N^4-benzoyl cHPMPC using DCC and morpholine in pyridine.

Series [8] concerns murine cytomegalovirus (MCMV). Particulars: cited from earlier work.
The next series has as its system R-MuLV. Particulars: treatment of R-MuLV in mice; cited from earlier work.
Series [9] concerns human immunodeficiency virus (HIV). Particulars: cited from earlier work.
Series [10] has as its system Rauscher murine leukemia virus (R-MuLV). Particulars: in vitro; cited from earlier work.
Another series has as its system HSV II. Briefly: Inhibition of cytopathic effects by HSV II in MA 104 cells, XTT readout. Type of series: cell-based. Particulars: CPE determined with XTT.
The next series relates to MA 104 cells. The series is described as follows: CC50 in the HSV II / MA 104 XTT assay. It is filed as cell-based. In general terms: Tetrazolium assays rely on reduction of a dye to a coloured formazan, in cell work by metabolically active cells.
A further series has as its system KOS strain of HSV-1. The series is described as follows: Antiviral activity against KOS strain of HSV-1 in VERO cells. It is filed as cell-based. The following applies: KOS strain of HSV-1, VERO cells; concentration that inhibits virus-mediated cell killing by 50%.
A further series has as its system HSV 1. The following applies: in vivo, HSV 1 infection in mice; cited from earlier work.
For a further series, the system named is B16 melanoma. The following applies: murine tumor model; cited from earlier work.
A further series relates to herpes viruses. Particulars: in vitro; cited from earlier work.
Series [11] can be described thus: Oral bioavailability in monkeys.
Series [12] in a line: Incubation in rat intestinal homogenate. Type of series: in vitro ADME. Particulars: two phosphorus isomers separated by HPLC (one isomer / the other isomer). The text has this:
(§1) The cHFMPC pivaloyloxymethyl ester synthesis yields a scalemic mixture at the phosphorus atom. The mixture was separated by HIPLC into the two isomers which were then exposed to an rat intestinal homogenate or to a rat intestinal wash.

A short description of series [13]: Incubation in rat intestinal wash. It is filed as in vitro ADME. The following applies: both phosphorus isomers.
Description: as §1

On to `Nc1nc2c(ncn2C[C@@H](CO)OCP(=O)(O)O)c(=O)[nH]1` [(S)-HFMPG], for which the “activity against HSV-1 and -2” value in series [1] is listed as “active”.
`Nc1ncnc2c1ncn2C[C@@H](CO)OCP(=O)(O)O` [(S)-HPMPA]: the “efficacy against local and systemic HSV-1 infections” value in [2] is listed as “effective”. In the series with vaccinia virus, the “activity against vaccinia virus” value is recorded as “active”. The activity against adenovirus result with adenovirus is reported as “active”. Besides, the “activity against VZV” value in series [3] is listed as “active”. In addition, in series [4], the “antitumor activity against P388 leukemia” value is “active”. Further, in series [5], the “activity against a broad-spectrum of DNA viruses” value is “potent and selective activity”. In addition, in [1], the “activity against HSV-1 and -2” value is listed as “active”.
Turning to `Nc1nc(N)c2ncn(C[C@@H](CO)OCP(=O)(O)O)c2n1` [(S)-HPMPDAP], in [1], the “activity against HSV-1 and -2” value was “active”.
As to `Nc1ncnc2c1ncn2C[C@H]1COP(=O)(O)CO1` [(S)-cyclic HPMPA], in the series on vaccinia virus, the “activity against vaccinia virus” value was “active”. The activity against adenovirus result with adenovirus was “active”. For the same molecule, in series [3], the “activity against VZV” value is “active”. The “activity against HSV-1 and -2” value in series [1] is on record as “active”.
Usually pIC50 stands for the IC50 on a negative log10 scale, so that one unit is a factor of ten. Broadly, the CC50 is the concentration that lowers cell viability or growth by half. In the series with HSV-2 (strain 414-92), `CC(NP(=O)(COCCn1cnc2c(N)ncnc21)NC(C)C(=O)OCc1ccccc1)C(=O)OCc1ccccc1` (stereo not drawn) [Ex 1, bis(alanyl benzyl ester)PMEA] gave a negative logarithm of the IC50 (pIC50) of 4.70. The molecule also returned a cytotoxic concentration (CC50) in series [6] of over 100 µM.
For `Nc1ncnc2c1ncn2CCOCP(=O)(NCC(=O)OCc1ccccc1)NCC(=O)OCc1ccccc1` [Ex 4, bis(glycyl benzyl ester)PMEA], the negative-log IC50 (pIC50) with HSV-2 (strain 414-92) is 4.22. This molecule also showed a CC50 in [6] of over 100 µM.
For `Nc1ccn(CC(CO)OCP(=O)(O)O)c(=O)n1` (stereo not drawn) [HPMPC, 1-(2-phosphonomethoxy-3-hydroxypropyl)-cytosine], the “activity against HCMV” value in series [7] was “active”. In addition, the “activity against HSV-1 and -2” value in series [1] is given as “active”. The molecule also showed a pIC50 in the series on HCMV (Human betaherpesvirus 5) of 6.40.
`O=C(Nc1ccn(C[C@H]2COP(=O)(O)CO2)c(=O)n1)c1ccccc1` [N^4-benzoyl cHPMPC] showed a pIC50 in the series with HCMV of 4.66.
One may read the pEC50 as −log10 of the EC50, conventionally taken in molar units. Read a high pEC50 as a low EC50. For the molecule `Nc1ncnc2c1ncn2CCOCP(=O)(O)O` [PMEA, 9-(2-phosphonylmethoxyethyl)adenine], the “antiviral effect in vivo against MCMV” value in [8] is listed as “significant antiviral effect”. Also, in the series on R-MuLV, the “potency in vivo compared with AZT” value was “more potent”. Further, the “activity against HIV” value in series [9] is reported as “active”. Also, the “activity against R-MuLV” value in series [10] is on record as “active”. In [7], the “activity against HCMV” value was “activity”. The “antitumor activity against P388 leukemia” value in series [4] is “active”. Further, in series [1], the “activity against HSV-1 and -2” value was “active”. Further, the pIC50 with HSV II was 4.71; with HSV-2 (strain 414-92) it was 4.68. Moreover, the cytotoxic concentration (CC50) in the series on MA 104 cells (MA 104 cells, XTT assay of Example 4, read-out: CC50) was 2000 µM. Moreover, the pEC50 in the series with KOS strain of HSV-1 was 3.86.
In the case of `Nc1nc(N)c2ncn(CCOCP(=O)(O)O)c2n1` [PMEDAP], the “activity against HIV” value in series [9] was “active”. Besides, the “activity against HSV-1 and -2” value in [1] was “active”.
On to `Nc1nc2c(ncn2CCOCP(=O)(O)O)c(=O)[nH]1` [PMEG], for which the “potency relative to acyclovir” value in the series with HSV 1 is on record as over 50 fold. Further, the “antitumor activity against B16 melanoma” value with B16 melanoma is listed as “active”. The “activity against herpes viruses” value in the series with herpes viruses was “active”. The “antitumor activity against P388 leukemia” value in series [4] was “active”. In [1], the “activity against HSV-1 and -2” value is recorded as “active”.
Consider `Nc1ncc2ncn(CCOCP(=O)(O)O)c2n1` [PMEMAP], for which the “activity against HIV” value in series [9] is “active”.
As for `CC(C)(C)C(=O)OCOP(=O)(COCCn1cnc2c(N)ncnc21)OCOC(=O)C(C)(C)C` [bis(POM)PMEA, bis(pivaloyloxymethyl)-9-(2-phosphonylmethoxyethyl)adenine], in the series with HSV II, the pIC50 was 6.30. The oral bioavailability result in series [11] is “about 25%”. This molecule also registered a CC50 in the series on MA 104 cells of over 10 µM.
Regarding `CC(C)(C)C(=O)OCOP1(=O)CO[C@@H](Cn2ccc(N)nc2=O)CO1` (stereo partly drawn) [cHFMPC pivaloyloxymethyl ester], in series [12], the “metabolic fate after incubation in intestinal homogenate” value was “converted to cHPMPC; also recorded: converted to HPMPC pivaloyloxymethyl monoester”. Moreover, the “metabolic fate after incubation in intestinal wash” value in series [13] is given as “converted to HPMPC pivaloyloxymethyl monoester”.
